In brackets after ≈: the same amount, converted by molar mass. Like-named read-outs stand apart in the source and are kept apart here.
How the values were obtained:
Assay type in all cases: cell-based
[1] = tested on: Helicobacter pylori (ATCC 43504); experiment: Antibacterial test (MIC) against Helicobacter pylori; conditions: for MIC: Helicobacter pylori
Method: (§1) ATCC43504 which was a standard bacterial strain was used as Helicobacter pylori (H. pylori) to perform the test in vitro in a Columbia agar medium. The bacteria were cultured at 37° C. and a pH of 7.0 for three days. The minimum inhibitory concentration (MIC, μg/ml) was found on the fourth day. Each sample was dissolved in 1% DMSO to use. […] As bacteria for comparison, Gram negative bacteria, for example, E. coli (ATCC 10536 ATCC 25922), Klebsiella pneumonia (ATCC 10031), Proteus vulgaris (ATCC 13315), Pseudomonas aeruginosa (ATCC 9027) and Salmonella typhimurium (ATCC 13311) were used and Gram positive bacteria, for example, Staphylococcus aureus, MRSA (ATCC 33591), Staphylococcus epidermidis (ATCC 12228), Streptococcus pneumonia (ATCC 6301), Mycobacterium ranae (ATCC 110) and Enterococcus faecalis (VRE, ATCC 51575) were used.
(§2) The values in each table show minimum inhibitory concentrations (MIC, μg/ml).

[2] = tested on: Enterococcus faecalis (VRE, ATCC 51575); experiment: Antibacterial test (MIC), comparison bacteria; conditions: Gram positive; for MIC: read-out: minimum inhibitory concentration (MIC)
Method: as §1, §2

[3] = tested on: Escherichia coli (ATCC 10536); experiment: Antibacterial test (MIC), comparison bacteria; conditions: for MIC: ATCC10536, Gram negative, read-out: minimum inhibitory concentration (MIC)
Method: as §1, §2

[4] = tested on: Escherichia coli (ATCC 25922); experiment: Antibacterial test (MIC), comparison bacteria; conditions: for MIC: ATCC25922, Gram negative, read-out: minimum inhibitory concentration (MIC)
Method: as §1, §2

[5] = tested on: Klebsiella pneumonia (ATCC 10031); experiment: Antibacterial test (MIC), comparison bacteria; conditions: for MIC: Klebsiella pneumoniae, ATCC10031, Gram negative, read-out: minimum inhibitory concentration (MIC)
Method: as §1, §2

[6] = tested on: Mycobacterium ranae (ATCC 110); experiment: Antibacterial test (MIC), comparison bacteria; conditions: for MIC: ATCC110, Gram positive, read-out: minimum inhibitory concentration (MIC)
Method: as §1, §2

[7] = tested on: Proteus vulgaris (ATCC 13315); experiment: Antibacterial test (MIC), comparison bacteria; conditions: for MIC: ATCC13315, Gram negative, read-out: minimum inhibitory concentration (MIC)
Method: as §1, §2

[8] = tested on: Pseudomonas aeruginosa (ATCC 9027); experiment: Antibacterial test (MIC), comparison bacteria; conditions: for MIC: ATCC9027, Gram negative, read-out: minimum inhibitory concentration (MIC)
Method: as §1, §2

[9] = tested on: Salmonella typhimurium (ATCC 13311); experiment: Antibacterial test (MIC), comparison bacteria; conditions: Gram negative; for MIC: Salmonella enterica, read-out: minimum inhibitory concentration (MIC)
Method: as §1, §2

[10] = tested on: Staphylococcus aureus (MRSA, ATCC 33591); experiment: Antibacterial test (MIC), comparison bacteria; conditions: Gram positive; for MIC: read-out: minimum inhibitory concentration (MIC)
Method: as §1, §2

[11] = tested on: Staphylococcus epidermidis (ATCC 12228); experiment: Antibacterial test (MIC), comparison bacteria; conditions: for MIC: ATCC12228, Gram positive, read-out: minimum inhibitory concentration (MIC)
Method: as §1, §2

[12] = tested on: Streptococcus pneumonia (ATCC 6301); experiment: Antibacterial test (MIC), comparison bacteria; conditions: for MIC: Streptococcus pneumoniae, ATCC6301, Gram positive, read-out: minimum inhibitory concentration (MIC)
Method: as §1, §2

[13] = tested on: Gram negative or Gram positive bacteria; experiment: Antibacterial test (MIC), comparison bacteria summarised in text; conditions: text summary over the comparison bacteria
Method: ATCC43504 which was a standard bacterial strain was used as Helicobacter pylori (H. pylori) to perform the test in vitro in a Columbia agar medium. The bacteria were cultured at 37° C. and a pH of 7.0 for three days. The minimum inhibitory concentration (MIC, μg/ml) was found on the fourth day. Each sample was dissolved in 1% DMSO to use. As control drugs for the antibacterial agent, ampicillin (AMPC), clarithromycin (CAM), and gentamycin (GEM) were used. As bacteria for comparison, Gram negative bacteria, for example, E. coli (ATCC 10536 ATCC 25922), Klebsiella pneumonia (ATCC 10031), Proteus vulgaris (ATCC 13315), Pseudomonas aeruginosa (ATCC 9027) and Salmonella typhimurium (ATCC 13311) were used and Gram positive bacteria, for example, Staphylococcus aureus, MRSA (ATCC 33591), Staphylococcus epidermidis (ATCC 12228), Streptococcus pneumonia (ATCC 6301), Mycobacterium ranae (ATCC 110) and Enterococcus faecalis (VRE, ATCC 51575) were used.
as §2

[14] = ATCC43504, 72 h, pH 7, Helicobacter pylori ATCC 43504, Columbia agar medium, 37° C., pH 7.0, cultured three days, MIC found on the fourth day, read-out: minimum inhibitory concentration (MIC)

Compound	MIC [1, 14] [µg/mL]	MIC [2] [µg/mL]	MIC [3] [µg/mL]	MIC [4] [µg/mL]	MIC [5] [µg/mL]	MIC [6] [µg/mL]	MIC [7] [µg/mL]	MIC [8] [µg/mL]	MIC [9] [µg/mL]	MIC [10] [µg/mL]	MIC [11] [µg/mL]	MIC [12] [µg/mL]	further results
CCOCCCOc1ccnc(SCc2nc3ccccc3[nH]2)c1C [Example 11]	0.1 (≈ 0.28 µM)	> 100	> 100	> 100	> 100	> 100	> 100	> 100	> 100	> 100	> 100	> 100	–
COCCOCCOc1ccnc(SCc2nc3ccccc3[nH]2)c1C.Cl [Example 12, 2-[[[4-[2-(2-methoxyethoxy)-ethoxy]-3-methyl-2-pyridyl]thio]-methyl]-1H-benzimidazole hydrochloride]	0.3	> 100	> 100	> 100	> 100	> 100	> 100	> 100	> 100	> 100	> 100	> 100	–
Cc1c(OCCCCCCCCO)ccnc1SCc1nc2ccccc2[nH]1 [Example 13, 2-[[[4-(8-hydroxy-1-octyloxy)-3-methyl-2-pyridyl]thio]-methyl]-1H-benzimidazole]	–	> 100	> 100	> 100	> 100	> 100	> 100	> 100	> 100	> 100	> 100	> 100	MIC ([1]; summary of Tables 2 and 3): 0.003 µg
Gentamycin [GEM, reference compound]	–	–	–	–	–	–	–	–	–	–	–	–	minimum inhibitory concentration (MIC) ([1]; Helicobacter pylori ATCC 43504, Columbia agar medium, 37° C., pH 7.0, cultured three days, MIC found on the fourth day): 0.3 µg/mL; MIC against Helicobacter pylori ([1]; control drug): 0.3 µg/mL; minimum inhibitory concentration (MIC) [2]: 100 µg/mL; minimum inhibitory concentration (MIC) ([3]; Gram negative): 0.3 µg/mL; minimum inhibitory concentration (MIC) ([4]; Gram negative): 1.0 µg/mL; minimum inhibitory concentration (MIC) ([5]; Gram negative): 1.0 µg/mL; minimum inhibitory concentration (MIC) ([6]; Gram positive): 0.3 µg/mL; minimum inhibitory concentration (MIC) ([7]; Gram negative): 0.3 µg/mL; minimum inhibitory concentration (MIC) ([8]; Gram negative): 1.0 µg/mL; minimum inhibitory concentration (MIC) [9]: 3.0 µg/mL; minimum inhibitory concentration (MIC) [10]: 1.0 µg/mL; minimum inhibitory concentration (MIC) ([11]; Gram positive): 0.1 µg/mL; minimum inhibitory concentration (MIC) ([12]; Gram positive): 100 µg/mL; MIC against Gram negative or Gram positive bacteria [13]: 0.1 to 1.0 µg/mL

— US20120041030A1, “PYRIDINE THIO DERIVATIVE, AND PHARMACEUTICAL COMPOSITION WHICH CONTAINS SAME AND HAS ANTI-HELICOBACTER PYLORI ACTION” (priority 2009, published 2012)
